Columns and labels:
Human GPR120 short form = biological target: T1, Human GPR120 short form (Homo sapiens, UniProt Q5NUL3); test: Human GPR120 calcium flux assay, Procedure Calcium B (4200 cells/well); type: cell-based
T1 construct: expressed in transfected cells
T1 sequence (Q5NUL3 1-361): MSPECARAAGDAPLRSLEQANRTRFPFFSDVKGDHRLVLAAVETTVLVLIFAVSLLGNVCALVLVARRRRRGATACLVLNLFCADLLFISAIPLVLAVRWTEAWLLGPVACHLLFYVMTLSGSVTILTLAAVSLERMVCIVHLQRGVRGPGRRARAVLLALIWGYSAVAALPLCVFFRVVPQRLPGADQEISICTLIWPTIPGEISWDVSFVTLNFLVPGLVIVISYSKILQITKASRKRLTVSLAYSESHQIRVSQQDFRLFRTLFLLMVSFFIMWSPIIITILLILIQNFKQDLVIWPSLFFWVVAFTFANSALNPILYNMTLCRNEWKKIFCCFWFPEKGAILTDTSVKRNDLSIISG
Outline: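 Agonist EC50 came from a four-parameter fit of RFU (Fmax−Fmin) read over 300 s on FLIPR. Cells were HEK293 stably transfected with human GPR120 (NM_001195755.1) at 4200 per well, serum-starved 1 h and loaded with Fluo-4 NW dye with probenecid before ligand addition.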

human GPR40 = biological target: T2, human GPR40 (Homo sapiens, UniProt O14842); test: GPR40 calcium flux assay, human GPR40; type: cell-based; conditions: HEK293 cells stably expressing GPR40; table does not say human or rat
T2 construct: expressed in transfected cells
T2 sequence (O14842 whole entry): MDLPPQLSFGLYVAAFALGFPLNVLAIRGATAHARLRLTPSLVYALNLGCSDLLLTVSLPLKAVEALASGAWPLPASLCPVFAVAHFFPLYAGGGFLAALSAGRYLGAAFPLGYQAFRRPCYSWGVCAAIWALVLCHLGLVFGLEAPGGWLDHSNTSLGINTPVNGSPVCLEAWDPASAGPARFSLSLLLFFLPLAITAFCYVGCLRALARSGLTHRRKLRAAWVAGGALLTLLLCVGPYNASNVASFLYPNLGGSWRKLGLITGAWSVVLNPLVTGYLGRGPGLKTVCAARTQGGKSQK
Outline: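 Cells preincubated 1 h at 37° C. in HBSS, 20 mM HEPES, 0.1% BSA, then Fluo 8 calcium dye 30 min at 37° C. and 15 min at room temperature.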

How did the EC50 (Human GPR120 short form) turn out when O=C(O)CCc1ccc(OCC2=C(C3CCCC3)CCC(F)(F)CC2)cc1C(F)(F)F [Compound 617, 3-[4-[(2-cyclopentyl-5,5-difluoro-cyclohepten-1-yl)methoxy]-2-(trifluoromethyl)phenyl]Propanoic Acid] was run?
Its EC50 is 215 nM.

What about the EC50 (human GPR40) of the same compound?
Its EC50 is 103 nM.

For COc1cc(C)ccc1C1=C(COc2ccc(CCC(=O)O)cc2)CCC1 [Compound 255], which EC50 (Human GPR120 short form) is on record?
Its EC50 is > 5000 nM.

What about the EC50 (human GPR40) of the same compound?
The EC50 was 1300 nM.

For CC(C)(C)CC1=C(COc2ccc(CCC(=O)O)c(C(F)(F)F)c2)CCC1 [Compound 387, 3-[4-[[2-(2,2-dimethylpropyl)cyclopenten-1-yl]methoxy]-2-(trifluoromethyl)phenyl]Propanoic Acid], which EC50 (Human GPR120 short form) is on record?
The EC50 was > 5000 nM.

What about the EC50 (human GPR40) of the same compound?
The EC50 was 71 nM.

How did the EC50 (Human GPR120 short form) turn out when O=C(O)CCc1ccc(OCC2=C(CC3CCCCC3)CCC2)cc1C(F)(F)F [Compound 369, 3-[4-[[2-(cyclohexylmethyl)cyclopenten-1-yl]methoxy]-2-(trifluoromethyl)phenyl]Propanoic Acid] was run?
The EC50 was > 5000 nM.

And the EC50 (human GPR40)?
Its EC50 is 125 nM.

Which EC50 (Human GPR120 short form) does the source give for Cc1c(CCC(=O)O)ccc(OCC2=C(C3CCC(F)(F)CC3)CCC2)c1C [Compound 413, 3-[4-[[2-(4,4-difluorocyclohexyl)cyclopenten-1-yl]methoxy]-2,3-dimethyl-phenyl]Propanoic Acid] here?
The EC50 was 1800 nM.

And the EC50 (human GPR40)?
The EC50 was > 10000 nM.

With O=C(O)CCc1ccc(OCC2=C(C(=O)c3ccccc3)CCC2)cc1C(F)(F)F [Compound 403, 3-[4-[(2-benzoylcyclopenten-1-yl)methoxy]-2-(trifluoromethyl)phenyl]Propanoic Acid] as the compound, how does the EC50 (Human GPR120 short form) read?
Its EC50 is 1490 nM.

What about the EC50 (human GPR40) of the same compound?
Its EC50 is 1140 nM.

What does the source list for O=C(O)CCc1ccc(OCC2=C(C3C=CCC3)CCC2)cc1Cl (stereo not shown) [Compound 451, 3-[2-chloro-4-[(2-cyclopent-2-en-1-ylcyclopenten-1-yl)methoxy]phenyl]Propanoic Acid]?
EC50 (Human GPR120 short form): 249 nM; EC50 (human GPR40): 32 nM

Which EC50 (Human GPR120 short form) does the source give for Cc1ccc(C2=C(COc3ccc(CCC(=O)O)cc3)CCC2)c(O)c1 [Compound 213] here?
The EC50 was 776 nM.

And the EC50 (human GPR40)?
The EC50 was > 5000 nM.

With Cc1ccc(F)c(C2=C(COc3ccc(CCC(=O)O)c(Cl)c3)CCC2)c1 [Compound 343, 3-[2-chloro-4-[[2-(2-fluoro-5-methyl-phenyl)cyclopenten-1-yl]methoxy]phenyl]Propanoic Acid] as the compound, how does the EC50 (Human GPR120 short form) read?
Its EC50 is 1380 nM.

And the EC50 (human GPR40)?
Its EC50 is 1100 nM.

CC1CCC(COc2ccc(CCC(=O)O)c(C(F)(F)F)c2)=C1c1ccc(Cl)cc1 (stereo not shown) [Compound 316, 3-[4-[[2-(4-chlorophenyl)-3-methyl-cyclopenten-1-yl]methoxy]-2-(trifluoromethyl)phenyl]Propanoic Acid] was tested. Which EC50 (Human GPR120 short form) did it give?
Its EC50 is 2430 nM.

What about the EC50 (human GPR40) of the same compound?
The EC50 was 164 nM.

With CC1CCC(c2ccccc2)=C1COc1ccc(CCC(=O)O)cc1 (stereo not shown) [Compound 366, 3-[4-[(5-methyl-2-phenyl-cyclopenten-1-yl)methoxy]phenyl]Propanoic Acid] as the compound, how does the EC50 (Human GPR120 short form) read?
Its EC50 is 1140 nM.

And the EC50 (human GPR40)?
The EC50 was > 10000 nM.

With O=C(O)CCc1ccc(OCC2=C(C3CCC3)CC(F)(F)C2)cc1Cl [Compound 430, 3-[2-chloro-4-[(2-cyclobutyl-4,4-difluoro-cyclopenten-1-yl)methoxy]phenyl]Propanoic Acid] as the compound, how does the EC50 (Human GPR120 short form) read?
Its EC50 is 335 nM.

And the EC50 (human GPR40)?
The EC50 was 46 nM.

Cc1cc(OCC2=C(C3CCCC3)CC(F)(F)C2)ccc1CCC(=O)O [Compound 441, 3-[4-[(2-cyclopentyl-4,4-difluoro-cyclopenten-1-yl)methoxy]-2-methyl-phenyl]Propanoic Acid] was tested. Which EC50 (Human GPR120 short form) did it give?
The EC50 was 100 nM.

What about the EC50 (human GPR40) of the same compound?
Its EC50 is 35 nM.

For O=C(O)CCc1ccc(OCC2=C(Cc3ccccc3)CCC2)cc1Cl [Compound 329, 3-[4-[(2-benzylcyclopenten-1-yl)methoxy]-2-chloro-phenyl]Propanoic Acid], which EC50 (Human GPR120 short form) is on record?
Its EC50 is 1600 nM.

What about the EC50 (human GPR40) of the same compound?
The EC50 was 101 nM.

O=C(O)CCc1ccc(OCC2=C(c3ccc(Cl)c(F)c3)CCC2)cc1Cl [Compound 274, 3-[2-chloro-4-[[2-(4-chloro-3-fluoro-phenyl)cyclopenten-1-yl]methoxy]phenyl]Propanoic Acid] was tested. Which EC50 (Human GPR120 short form) did it give?
Its EC50 is 518 nM.

And the EC50 (human GPR40)?
Its EC50 is 215 nM.

For CC(C)CCC1=C(COc2ccc(CCC(=O)O)c(C(F)(F)F)c2)CCC1 [Compound 374, 3-[4-[(2-isopentylcyclopenten-1-yl)methoxy]-2-(trifluoromethyl)phenyl]Propanoic Acid], which EC50 (Human GPR120 short form) is on record?
The EC50 was 1430 nM.

What about the EC50 (human GPR40) of the same compound?
The EC50 was 199 nM.

What does the source list for CCOc1ccc(C2=C(COc3ccc(CCC(=O)O)c(C)c3C)CCC2)cn1 [Compound 219, 3-[4-[[2-(6-ethoxy-3-pyridyl)cyclopenten-1-yl]methoxy]-2,3-dimethyl-phenyl]Propanoic Acid]?
EC50 (Human GPR120 short form): 1120 nM; EC50 (human GPR40): > 5000 nM

For O=C(O)CCc1ccc(OCC2=C(c3cc(Cl)ccc3F)CCC2)cc1C(F)(F)F [Compound 344, 3-[4-[[2-(5-chloro-2-fluoro-phenyl)cyclopenten-1-yl]methoxy]-2-(trifluoromethyl)phenyl]Propanoic Acid], which EC50 (Human GPR120 short form) is on record?
Its EC50 is 520 nM.

And the EC50 (human GPR40)?
Its EC50 is 137 nM.

With CCCCC1=C(COc2ccc(CCC(=O)O)cc2)CCC1 [Compound 365] as the compound, how does the EC50 (Human GPR120 short form) read?
The EC50 was 496 nM.

And the EC50 (human GPR40)?
Its EC50 is 991 nM.

With C=C(Br)c1cc(OCC2=C(C3CCCC3)CCC2)ccc1CCC(=O)O [Compound 448, 3-[2-(1-bromovinyl)-4-[(2-cyclopentylcyclopenten-1-yl)methoxy]phenyl]Propanoic Acid] as the compound, how does the EC50 (Human GPR120 short form) read?
Its EC50 is > 5000 nM.

And the EC50 (human GPR40)?
The EC50 was 2040 nM.

What does the source list for Cc1cc(CCC(=O)O)c(C(F)(F)F)cc1OCC1=C(c2ccc(Cl)cc2)CCC1 [Compound 98, 3-[4-[[2-(4-chlorophenyl)cyclopenten-1-yl]methoxy]-5-methyl-2-(trifluoromethyl)phenyl]Propanoic Acid]?
EC50 (Human GPR120 short form): 2030 nM; EC50 (human GPR40): > 5000 nM

O=C(O)CCc1ccc(OCC2=C(Cc3ccc(Cl)cc3)CCC2)cc1C(F)(F)F [Compound 359, 3-[4-[[2-[(4-chlorophenyl)methyl]cyclopenten-1-yl]methoxy]-2-(trifluoromethyl)phenyl]Propanoic Acid] was tested. Which EC50 (Human GPR120 short form) did it give?
The EC50 was 3110 nM.

And the EC50 (human GPR40)?
The EC50 was 81 nM.

Which results are given for O=C(O)CCc1ccc(OCC2=C(Cc3ccc(Cl)cc3)CCC2)cc1Cl [Compound 356, 3-[2-chloro-4-[[2-[(4-chlorophenyl)methyl]cyclopenten-1-yl]methoxy]phenyl]Propanoic Acid]?
EC50 (Human GPR120 short form): 2540 nM; EC50 (human GPR40): 68 nM

Which results are given for COC1CCC(c2ccc(C)cc2)=C(COc2ccc(CCC(=O)O)c(C(F)(F)F)c2)C1 (stereo not shown) [Compound 577, 3-[4-[[5-methoxy-2-(p-tolyl)cyclohexen-1-yl]methoxy]-2-(trifluoromethyl)phenyl]Propanoic Acid]?
EC50 (Human GPR120 short form): 1100 nM; EC50 (human GPR40): 3010 nM

For Cc1ccc(C2=C(COc3ccc(CCC(=O)O)c(C(F)(F)F)c3)CCC2)c(C)c1 [Compound 247, 3-[4-[[2-(2,4-dimethylphenyl)cyclopenten-1-yl]methoxy]-2-(trifluoromethyl)phenyl]Propanoic Acid], which EC50 (Human GPR120 short form) is on record?
Its EC50 is 3060 nM.

What about the EC50 (human GPR40) of the same compound?
Its EC50 is 388 nM.

What does the source list for O=C(O)CCc1ccc(OCC2=C(c3ccccc3)CCC2)cc1C(F)(F)F [Compound 258, 3-[4-[(2-phenylcyclopenten-1-yl)methoxy]-2-(trifluoromethyl)phenyl]Propanoic Acid]?
EC50 (Human GPR120 short form): 614 nM; EC50 (human GPR40): 481 nM

Which EC50 (Human GPR120 short form) does the source give for O=C(O)CCc1cc(F)c(OCC2=C(C3CCCC3)CCC2)c(F)c1 [Compound 436] here?
The EC50 was 159 nM.

What about the EC50 (human GPR40) of the same compound?
Its EC50 is > 10000 nM.

With Cc1cc(CCC(=O)O)ccc1OCC1=C(C2=CCOCC2)CCC1 [Compound 238, 3-[4-[[2-(3,6-dihydro-2H-pyran-4-yl)cyclopenten-1-yl]methoxy]-3-methyl-phenyl]Propanoic Acid] as the compound, how does the EC50 (Human GPR120 short form) read?
Its EC50 is 435 nM.

What about the EC50 (human GPR40) of the same compound?
Its EC50 is > 5000 nM.

With Cc1cc(CCC(=O)O)cc(Cl)c1OCC1=C(c2ccc(F)cc2)CC(F)(F)C1 [Compound 229, 3-[3-chloro-4-[[4,4-difluoro-2-(4-fluorophenyl)cyclopenten-1-yl]methoxy]-5-methyl-phenyl]Propanoic Acid] as the compound, how does the EC50 (Human GPR120 short form) read?
The EC50 was 1050 nM.

What about the EC50 (human GPR40) of the same compound?
The EC50 was > 5000 nM.

What does the source list for Cc1cc(OCC2=C(c3ccc(Br)cc3)CC(F)(F)C2)c(F)cc1CCC(=O)O [Compound 392, 3-[4-[[2-(4-bromophenyl)-4,4-difluoro-cyclopenten-1-yl]methoxy]-5-fluoro-2-methyl-phenyl]Propanoic Acid]?
EC50 (Human GPR120 short form): 223 nM; EC50 (human GPR40): 1400 nM

Which EC50 (Human GPR120 short form) does the source give for O=C(O)CCc1ccc(OCC2=C(C3CCCC3)CCCCC2)cc1C(F)(F)F [Compound 612, 3-[4-[(2-cyclopentylcyclohepten-1-yl)methoxy]-2-(trifluoromethyl)phenyl]Propanoic Acid] here?
Its EC50 is 233 nM.

What about the EC50 (human GPR40) of the same compound?
The EC50 was 107 nM.

For Cc1c(CCC(=O)O)ccc(OCC2=C(C3CCCC3)CCC2)c1F [Compound 431, 3-[4-[(2-cyclopentylcyclopenten-1-yl)methoxy]-3-fluoro-2-methyl-phenyl]Propanoic Acid], which EC50 (Human GPR120 short form) is on record?
The EC50 was 59 nM.

What about the EC50 (human GPR40) of the same compound?
The EC50 was > 10000 nM.

How did the EC50 (Human GPR120 short form) turn out when Cc1cc(OCC2=C(Cc3cccc(F)c3)CCC2)c(F)cc1CCC(=O)O [Compound 363, 3-[5-fluoro-4-[[2-[(3-fluorophenyl)methyl]cyclopenten-1-yl]methoxy]-2-methyl-phenyl]Propanoic Acid] was run?
The EC50 was > 5000 nM.

What about the EC50 (human GPR40) of the same compound?
The EC50 was 1700 nM.

For Cc1cc(OCC2=C(c3ccc(Cl)cc3)CC(F)(F)C2)c(F)cc1CCC(=O)O [Compound 375], which EC50 (Human GPR120 short form) is on record?
Its EC50 is 88 nM.

And the EC50 (human GPR40)?
The EC50 was 962 nM.

Cc1cccc(CC2=C(COc3ccc(CCC(=O)O)c(C(F)(F)F)c3)CCC2)c1 [Compound 405, 3-[4-[[2-(m-tolylmethyl)cyclopenten-1-yl]methoxy]-2-(trifluoromethyl)phenyl]Propanoic Acid] was tested. Which EC50 (Human GPR120 short form) did it give?
The EC50 was 1820 nM.

And the EC50 (human GPR40)?
The EC50 was 205 nM.

Source: patent publication US11230526B1, “Cylcoalkenyl derivatives useful as agonists of the GPR120 and/or GPR40 receptors” (Janssen Pharmaceutica NV, priority 2018, dated 2022)
